Laboratory results published in patent US20170182070A1, “Controlled Release Doxycycline” (Mayne Pharma International Pty Ltd., priority 2014, published 2017).
Counter-ions that a name gives are not always drawn. Like-named read-outs stand apart in the source and are kept apart here. Each block holds one compound with its values, some of them ahead of it.

What was measured:
[1] = cited from earlier work
[2] = Physicochemical properties of doxycycline forms
[3] = In vitro dissolution/release profile, USP <711> Apparatus 1 (baskets); type: physicochemical
Protocol: For the purposes of in vitro testing, a release or dissolution profile may be determined at pH 1.2 using a 0.06 N hydrochloric acid solution, at pH 4.5 using a phosphate buffer using USP <711> test conditions, and at pH 5.0 using a buffer using USP <711> test conditions. Such test conditions can be carried out according to USP <711> dissolution conditions using Apparatus 1 (baskets) in 900 mL of media with stirring at 50 RPM. The in vitro release of the pellets was tested using USP XXIV 2000—Apparatus 1 (baskets). See, e.g., Riaz Uddin, Nadia Saffoon, and Kumar Bishwajit Sutradhar, “Dissolution and Dissolution Apparatus: A Review,” Int. J. Cur. Biomed. Phar. Res., 2011, Vol. 1(4), pgs. 201-207. The acid environment dissolution profile of pellet A and B's formulation can be seen in FIG. 1. The dissolution profile of pellet A and B formulations at elevated pH can be seen in FIG. 2.

Plasmodium falciparum = settings: cited from earlier work
[4] = cited from earlier work; remark: listed apart in the source
[5] = Population pharmacokinetic model of doxycycline plasma concentrations, pooled phase 1 data (Example 8); type: in vivo, human
Protocol: Pharmacokinetic data were available from eight phase 1 clinical trials conducted by Mayne Pharma International. These studies assessed doxycycline plasma concentrations following oral administration of either a 100 mg conventional release doxycycline hyclate capsule, a 75/100/150 or 200 mg Doryx® Delayed-Release tablet or a 120 mg Doryx MPC® Delayed-Release tablet in healthy subjects. For the remainder of the Specification's Example 8, conventional release doxycycline hyclate capsules will be referred to as Doryx capsules, the Doryx® Delayed-Release tablets will be referred to as Doryx tablets, and Doryx MPC® Delayed-Release tablets (formulation code MP336) will be referred to as Doryx MPC.
The available phase 1 clinical trials included six single dose two treatment period studies assessing the influence of formulation or the fed/fasted state on doxycycline concentrations. Two trials were multi-dose studies; with one a single treatment period study and the other a two treatment period study assessing doxycycline plasma concentrations following Doryx capsule or Doryx tablet administration. All studies were conducted in the United States. […] The design and dosing schedules are summarized in […].3. The available studies were assigned a local identifier during model development (10, 20, 30, 40, 50, 60, 70, and 80), as indicated in […].3, and will be referred to by these numbers for the remainder of the Specification.
Studies 10, 20, 30, 50, 60 and 80 were single-dose studies and plasma samples were acquired at nominal times approximate to 0, 0.25, 0.5, 1, 1.5, 2, 2.5, 3, 3.5, 4, 6, 8, 10, 12, 16, 24, 36, 48, 72 and 96 hours after the dose on day 1 of that period. Study 40 was a single treatment period multi-dose study, where participants were dosed 7 times at 24 hour intervals and plasma samples were collected at nominal times of 0, 0.25, 0.5, 1, 1.5, 2, 2.5, 3, 4, 6, 8, 10, 12, 16, 24, 144, 144.25, 144.5, 145, 145.5, 146, 146.5, 147, 148, 150, 152, 156, 160, 168, 180, 192, 216 and 240 hours after the dose on day 1. Study 70 was a two treatment period multi-dose study, where doses were given at 0, 72, 96, 120, 144 and 168 hours after the start of treatment, and plasma samples were collected at nominal times of 0, 0.25, 0.5, 1, 1.5, 2, 2.5, 3, 4, 6, 8, 10, 12, 16, 24, 36, 48, 72, 96, 120, 144, 168, 168.25, 168.5, 169, 169.5, 170, 170.5, 171, 172, 174, 176, 180, 184, 192, 204, 216 and 240 hours after the dose on day 1. Deviations between nominal sampling times and actual sample times were recorded, and the actual times were used during model development. Covariates describing fed status, formulation, sex, age, race, weight, body mass index (BMI), smoking status and study number were available for each individual.
Doxycycline plasma concentrations were measured using validated high performance liquid chromatographic methods, with the lower limits of quantification (LLOQ) of the assays indicated in […].3. All subjects with evaluable pharmacokinetic data were included in the analysis. All studies were conducted according to the International Conference of Harmonisation (ICH) guidelines for good clinical practice, the Declaration of Helsinki on the ethical conduct of medical research, and applicable regulatory requirements. Each subject signed and dated a written informed consent before study participation.
The base model was developed in a step-wise manner. Pharmacokinetic models were coded using the ADVAN5 subroutines of NONMEM. Linear kinetic models with 1, 2 and 3 compartments were evaluated, with absorption models including simple first-order absorption and “transit compartment” models with up to 5 absorption transit compartments assessed. The parameter KTR (transit absorption rate) was used to describe the first-order movement through these absorption compartments. The First Order Conditional Estimation (FOCE) method was used to fit models. […]

SMILES: CC1c2cccc(O)c2C(=O)C2=C(O)[C@]3(O)C(=O)C(C(N)=O)=C(O)[C@@H](N(C)C)[C@@H]3[C@@H](O)[C@@H]21 (stereo partly drawn) [Doxycycline hyclate, [4S(4aR,5S,5aR,6R,12aS)]-4-(dimethylamino)-1,4,4a,5,5a,6,11,12a-octahydro-3,5,10,12,12a-pentahydroxy-6-methyl-1,11-deoxonapthtacene-2-carboxamide monohydrochloride, compound with ethyl alcohol (2:1), monohydrate]
solubility [1]: soluble in water and in solutions of alkali hydroxides and carbonates

solubility ([2]; lower pH values (FIG. 5)): very soluble | solubility ([2]; pH above 3 (FIG. 5)): not very soluble | release rates overall ([3]; FIG. 5): low release rates overall | release ([3]; acidic conditions (FIG. 5)): releases readily
SMILES: C[C@H]1c2cccc(O)c2C(=O)C2=C(O)[C@]3(O)C(=O)C(C(N)=O)=C(O)[C@@H](N(C)C)[C@@H]3[C@@H](O)[C@@H]21 [doxycycline monohydrate salt]

CL, Clearance ([5]; final model parameter estimate): 4.63 L/h/70 kg FFM | CLP1, Intercompartmental clearance ([5]; final model parameter estimate): 11.3 L/h/70 kg FFM | KTR, Transit compartment rate constant ([5]; final model parameter estimate): 2 h⁻¹ | V, Central distribution volume ([5]; final model parameter estimate): 55.2 L/70 kg FFM | VP1, Peripheral distribution volume ([5]; final model parameter estimate): 49.8 L/70 kg FFM | FTLAG2, lag on KTR (absorption) for the fed status ([5]; final model, formulation non-specific): 0.203 h | Fed-state decrease in relative bioavailability ([5]; human, plasma, oral, final model parameter estimate, read-out: COVFEDF, Effect of food on relative bioavailability): 10.5% | female sex increase in clearance ([5]; in vivo): 14.4% | fed status decrease in relative bioavailability (F) ([5]; irrespective of formulation): 10.5%
SMILES: C[C@H]1c2cccc(O)c2C(=O)C2=C(O)[C@]3(O)C(=O)C(C(N)=O)=C(O)[C@@H](N(C)C)[C@@H]3[C@@H](O)[C@@H]21 [doxycycline, (4S,4aR,5S,5aR,6R,12aS)-4-(dimethylamino)-3,5,10,12,12a-pentahydroxy-6-methyl-1,11-dioxo-1,4,4a,5,5a,6,11,12a-octahydrotetracene-2-carboxamide]
activity against asexual erythrocytic forms (Plasmodium falciparum): active | activity against gametocytes (Plasmodium falciparum): not against the gametocytes | peak serum level ([4]; 200 mg dose, at 2 hours, normal adult volunteers): 2.6 µg/mL | serum level ([4]; 200 mg dose, at 24 hours): 1450 ng/mL | absorption after oral administration ([4]; in vivo, po): virtually completely absorbed | half-life ([4]; in vivo): approximately 18 hours | excretion by the kidney ([4]; normal function (creatinine clearance about 75 mL/min)): about 40 %/72 hours | excretion by the kidney ([4]; severe renal insufficiency (creatinine clearance below 10 mL/min)): 1-5 %/72 hours | lipid solubility [1]: high degree of lipid solubility
